Data as given in PMC4494927, “Discovery of a small molecule targeting SET-PP2A interaction to overcome BCR-ABLT315I mutation of chronic myeloid leukemia” (Oncotarget, 2015).

Key:
[1] = test system: PC-3 cells; assay: Cytotoxicity assay (CellTiter-Glo); format: cell-based, human; settings: 120 h, panel of 20 tumor cell lines
Description: (§1) Twenty types of tumor cell lines were seeded at 4000 cells per well in 96-well plates. TGI1002 dissolved in phosphate saline was added to cells at final concentrations ranging from 0.5 nM to 100 μM for 120 h. Cell viability was measured with the CellTiter-Glo Luminescent Cell Viability Assay (Promega) according to the manufacturer's instructions. Luminescence was measured using an EnVision Multilabel Plate Reader (Perkin-Elmer). The cytotoxicity of TGI1002 was expressed as the percentage of luminescence relative to that of untreated cells.

[2] = test system: HT-29 cells; assay: Cytotoxicity assay (CellTiter-Glo); format: cell-based, human; settings: 120 h, panel of 20 tumor cell lines
Description: as §1

[3] = test system: BaF3-p210^T315I cells; assay: Survival study, intravenously injected tumor cells; format: in vivo, BALB/c mice; settings: 30 mg/kg i.p. once daily from day 5; vehicle 25.5 days
Description: In survival study, BaF3-p210^T315I cells were injected into the tail vein of BALB/c mice (100 μL of a 1 × 10^7 cells suspension in serum free medium). […] Moribund animals were sacrificed as per institutional and national guidelines. Survival data were analyzed by the Kaplan Meier method and compared using the log-rank test.

[4] = test system: tubulin; assay: Microtubule assembly assay in K562 cells; format: cell-based, human; settings: 24 h
Description: Separation of insoluble polymerized tubulin from soluble tubulin dimers and analysis of the effects of TGI1002 on tubulin polymerization were performed as described previously. In brief, K562 cells at a density of 1 × 10^6/100 mm^2 dishes were treated with indicated concentrations of TGI1002 at 24 h. Cells were washed with PBS for three times before adding polymerization lysate buffer containing 20 mM Tris-HCl (pH6.8), 1 mM MgCl2, 2 mM EGTA, […] aprotinin, […] leupeptin, 1 mM phenylmethylsulfonyl fluoride, 1 mM orthovanadate and 0.5% Nonidet. After centrifugation at 15,000 x g for 10 min at 4 °C, the pellets were resuspended in SDS-PAGE loading buffer and dissolved by heating at 95 °C for 10 min. Beta-tubulin was then Western blotted from both pellets (containing polymerized microtubules) and supernatants (containing depolymerized microtubules).

[5] = test system: BaF3-p210^T315I cells; assay: Cytotoxicity assay (CellTiter-Glo); format: cell-based, murine; settings: Mus musculus; TKI-resistant BaF3-p210^T315I cells, cell viability
Description: as §1

[6] = test system: BCR-ABL; assay: Western blot of BCR-ABL expression in K562 cells; format: cell-based, human
Description: Protein samples (40 μg) were resolved on SDS-PAGE gels, transferred onto PVDF membranes (Millipore) and incubated overnight with primary antibodies to β-tubulin, BCR-ABL, p-BCR-ABL, SET, PP2Ac and p-PP2Ac. The membranes were incubated with horseradish peroxidase (HRP)-conjugated secondary antibody for 1 h, and the bands were visualized using an ECL detection kit following the manufacturer's instructions. For immunoprecipitation, cells were lysed in 20 mM Tris-HCl (pH 7.0), 150 mM NaCl, 1 mM EDTA, 1 mM MgCl and 0.5% NP-40 supplemented with a cocktail of protease and phosphatase inhibitors (Roche). Lysates (200 μg) were incubated with primary antibodies (1 μg) against SET or PP2Ac at 4 °C for 10 h, protein A/G plus agarose beads were then added for immunoprecipitation overnight at 4 °C. After wash, the immunoprecipitated proteins were separated by SDS-PAGE and analyzed by Western blotting.

[7] = test system: PP2A; assay: PP2Ac immunoprecipitation phosphatase assay in K562 cells; format: cell-based, human; settings: 10 μM, 24 h
Description: PP2A assay from whole cell lysates was carried out using commercial PP2Ac immunoprecipitation phosphatase assay kit (Millipore). Briefly, 200 μg protein lysates prepared as described above, 4 μg PP2Ac-specific antibody, and 40 μL protein A-agarose were added to TBS buffer (20 mM Tris-HCl, 150 mM NaCl, and 0.1% Tween 20) to a final volume of 500 μL and immunoprecipitation was carried out at 4 °C for 2 h. The immunoprecipitates were used in the phosphatase reaction following the manufacturer's protocol.

[8] = test system: BaF3-p210^T315I tumor xenografts; assay: In vivo anti-tumor efficacy, subcutaneous xenograft; design: species or system BALB/c mice; settings: for inhibition of tumor growth, in terms of tumor volume: day 20 post-injection of BaF3-p210^T315I cells
Description: BABL/c male mice from SLRC Experimental Animal Center were bred under pathogen-free conditions and were used for experiments at 6-8 weeks of age. Animal experiments were performed according to institutional and national guidelines. BaF3-p210^T315I cells were implanted subcutaneously into the right flank of nude mice (200 μL of a 1 × 10^7cells suspension in serum free medium). When tumors became large enough for caliper measurement, tumor volumes were calculated as (length × width^2) × 0.5. […] At the end of the experiments, tumors were dissected and photographed, and wet weights of each tumor were measured.

[9] = target: T1, recombinant human SET protein (Homo sapiens, UniProt Q01105); assay: Microscale thermophoresis (MST) binding to NT647-labeled SET; settings: 15 μM NT647-labeled SET, PBS pH 8.0, 25 °C
T1 construct: Genes encoding the full length of human SET (GenBank No.: AAA60318.1) was synthesized; made in house; host or cells: E. coli (pET-21a)
T1 sequence (Q01105 1-277 isoform Q01105-2): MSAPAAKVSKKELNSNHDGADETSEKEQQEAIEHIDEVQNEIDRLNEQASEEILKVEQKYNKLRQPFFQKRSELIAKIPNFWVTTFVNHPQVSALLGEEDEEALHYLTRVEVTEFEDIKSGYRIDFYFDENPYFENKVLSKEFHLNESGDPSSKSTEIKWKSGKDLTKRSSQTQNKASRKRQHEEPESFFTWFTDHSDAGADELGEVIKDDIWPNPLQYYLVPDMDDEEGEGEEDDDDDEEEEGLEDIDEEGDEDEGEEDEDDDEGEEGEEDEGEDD
Description: Thermophoresis analysis was performed during 30 s on a NanoTemper Monolith NT.115 instrument (20% LED, 40% MST power) at 25 °C.

[10] = test system: K562 cells expressing SET shRNA; assay: Cytotoxicity in K562 cells with stable SET knock-down (shRNA); format: cell-based, human; settings: SET knock-down vs control K562 cells
Description: as §1
Lentivirus-encoded shRNA against human SET (GenBank No.: NM_003011) and a noncoding gene (negative control) were prepared by Genechem and titered to 2 × 10^8 (TU/mL). K562 cells (1 × 10^4 cells/well) were seeded in 96-well plates overnight before transfection. The virus (10 μL) was mixed with 90 μL complete medium containing polybrene (5 μg/mL) and added to cells and incubated for 12 h at 37 °C. Then, the cells were incubated in fresh complete RPMI 1640 medium for 72 h, followed by incubation in complete medium containing puromycin (5 μg/mL). After 2 weeks of selection, individual clones were isolated, passaged and harvested for subsequent studies. Identification of stable SET-knockdown K562 cell line was performed by Western blotting. Effects of TGI1002 on cell viability of SET-knockdown K562 cells were studied as described above.

**Q.** What does the source list for `Cc1ccc(NC(=O)c2cccc(CN3CCN(C)CC3)c2)cc1Oc1nccc(-c2cccnc2)n1.Cl` [TGI1002, N-(4-methyl-3-((4-(pyridin-3-yl)-pyrimidin-2-yl)oxy)phenyl)-3-((4-methylpiperazin-1-yl)methyl)benzamide hydrochloride]?
**A.** cytotoxicity [1]: cytotoxic effects; cytotoxicity [2]: cytotoxic effects; median survival [3]: 32.5 days; amounts of tubulin in depolymerized fraction S and polymerized fraction P [4]: not affected; IC50 [5]: 14.7 ± 2.61 µM; expression level of BCR-ABL [6]: not affected; PP2A activity enhanced compared to untreated cells [7]: 144.67 ± 5.51%; inhibition of tumor growth, in terms of tumor volume ([8]; 30 mg/kg i.p. daily): 51.07%; inhibition of tumor growth, in terms of tumor volume ([8]; 45 mg/kg i.p. daily): 53.15%; inhibition of tumor growth, in terms of tumor volume ([8]; 60 mg/kg i.p. daily): 68.01%; body weight ([8]; 30, 45 and 60 mg/kg i.p. daily, tumor-bearing mice): without loss of body weight; final tumor volume and weight compared to vehicle group ([8]; TGI1002 30, 45, 60 mg/kg, imatinib, ponatinib 10 mg/kg, i.p. daily): markedly lower; Kd [9]: 1.66 ± 0.45 µM; sensitivity of K562 cells to treatment after SET-specific shRNA [10]: decreased the sensitivity
